# Test results from US10752612B2, “PLK4 inhibitors” (LUDWIG INSTITUTE FOR CANCER RESEARCH LTD, priority 2015, dated 2020).
# Columns and labels:
# JAK2 = biological target: T1, JAK2 (Homo sapiens, UniProt O60674); assay: Radiometric kinase assay, off-target JAK2; type: biochemical; conditions: off-target from DiscoveRx kinome profiling
# T1 construct: Reaction Biology (Malvern, Pa.), contract assay
# Procedure: (§1) Aurora B and other radiometric kinase assays were performed by Reaction Biology (Malvern, Pa.). Kinome profiling of centrinone and centrinone-B was performed by DiscoveRx (San Diego, Calif.).
# NIH/3T3 cells [1] = assay: Proliferation assay, NIH/3T3; type: cell-based, mouse
# Procedure: Proliferation assays. For each condition, cells were seeded in triplicate into 6-well plates at 50,000 cells/well. Compounds were added at the indicated concentrations. At 24-hour intervals, 3 wells were harvested per condition. Cell counting was performed using a TC10 automated cell counter (Bio-Rad). Results are from 3 independent experiments.
# NIH/3T3 cells [2] = assay: Analysis of mitosis, NIH/3T3 centrin-GFP H2B-RFP; type: cell-based, mouse; conditions: centrosome-less NIH/3T3 cells
# Procedure: (§2) Analysis of mitosis and daughter cell fate. […] Cells were seeded into 96-well cycloolefin plates at 5000 cells/well, 8-10 hours before imaging. Movies were acquired on the CV1000 with a 40×0.95 NA U-PlanApo objective. The imaging chamber was maintained at 37° C. and 5% CO2. Image acquisition and data analysis were performed using CellVoyager software. 20 fields/well were imaged. For HeLa and NIH/3T3 cells, 5×2 μm z-sections in the GFP (25% power, 125 ms, 30% gain) and RFP (25% power, 100 ms, 30% gain) channels were captured in each field, at 5-minute intervals for 24 hours. For RPE1 cells, 5×2 μm z-sections in the GFP (20% power, 100 ms, 30% gain) and RFP (25% power, 100 ms, 30% gain) channels were captured in each field, at 5-minute intervals for 8 hours. To track RPE1 daughter cell fate, imaging was then switched to 3×4 μm z-sections in the RFP channel only, at 10-minute intervals for 48 hours. Mitosis was measured from nuclear envelope breakdown to anaphase onset (or arrest). Results represent combined measurements of 100 mother cells per condition from 2-4 independent experiments.
# FLT4/VEGFR3 = FLT4/VEGFR3 (Homo sapiens, UniProt P35916); assay: Radiometric kinase assay, off-target FLT4/VEGFR3; type: biochemical; conditions: off-target from DiscoveRx kinome profiling
# Procedure: as §1
# Aurora B = biological target: T2, Aurora B (Homo sapiens, UniProt Q96GD4); assay: Aurora B radiometric kinase assay (Reaction Biology); type: biochemical
# T2 construct: Reaction Biology (Malvern, Pa.), contract assay
# Procedure: Aurora B and other radiometric kinase assays were performed by Reaction Biology (Malvern, Pa.).
# RPE1 cells = assay: Analysis of mitosis and daughter cell fate, RPE1; type: cell-based, human
# Procedure: as §2
# To study the correlation between mother cell prometaphase duration and daughter cell fate, RPE1 cells co-expressing centrin-GFP and H2B-RFP were seeded into 96-well cycloolefin plates at 5000 cells/well, 8-10 hours before imaging. Cells were treated with 80 nM nocodazole and immediately imaged on the CV1000 system with a 40×0.95 NA U-PlanApo objective. The imaging chamber was maintained at 37° C. and 5% CO2. 20 fields/well were imaged. 5×2 Lm z-sections in the GFP (20% power, 100 ms, 30% gain) and RFP (25% power, 100 ms, 30% gain) channels were captured in each field, at 5-minute intervals for 6 hours. The plate was then removed from the microscope, and wells were washed 6 times with warm medium. The plate was returned to the microscope, and imaging was resumed, capturing 3×4 Lm z-sections in the RFP channel only, at 10-minute intervals for 50 hours. To study the effect of chromosome missegregation on daughter cell fate, cells were treated with 1 LM NMS-P715 to inhibit the spindle assembly checkpoint kinase Mps1, then imaged as described above. Only mitotic events with clear missegregation (lagging chromosomes and subsequent formation of daughter cells with micronuclei) were analyzed. For both experiments, results represent combined measurements of 100 mother cells from 2 independent experiments.
# centrosomes in cells = assay: Cellular centrosome depletion (cell line not stated); type: cell-based; conditions: cellular activity, FIG. 1A
# Procedure: Centriole depletion assay for compound screening. 1,500 NIH/3T3 cells or 3,500 HCT116 cells were seeded into 96-well SCREENSTAR microplates (Greiner) and treated with inhibitors in dose response, added from DMSO stocks. After 3 days, cells were fixed directly in the wells with 100% methanol (−20° C., 10 minutes). The fixed cells were washed with PBS and stained with primary antibodies against γ-tubulin and, for a subset of compounds, Cep192. Cells were then stained with Alexa-488 donkey anti-mouse and Alexa-647 goat anti-rabbit secondary antibodies. Cells were imaged using either a Model 500 LumaScope (Etaluma) or an EVOS FL (Advanced Microscopy Group/Life Technologies), and centriole depletion was determined by scoring the percentage of cells without visible γ-tubulin/Cep192 foci.
# TNK1 = biological target: T3, TNK1 (Homo sapiens, UniProt Q13470); assay: Radiometric kinase assay, off-target TNK1; type: biochemical; conditions: off-target from DiscoveRx kinome profiling
# T3 construct: Reaction Biology (Malvern, Pa.), contract assay
# T3 sequence (Q13470 1-666): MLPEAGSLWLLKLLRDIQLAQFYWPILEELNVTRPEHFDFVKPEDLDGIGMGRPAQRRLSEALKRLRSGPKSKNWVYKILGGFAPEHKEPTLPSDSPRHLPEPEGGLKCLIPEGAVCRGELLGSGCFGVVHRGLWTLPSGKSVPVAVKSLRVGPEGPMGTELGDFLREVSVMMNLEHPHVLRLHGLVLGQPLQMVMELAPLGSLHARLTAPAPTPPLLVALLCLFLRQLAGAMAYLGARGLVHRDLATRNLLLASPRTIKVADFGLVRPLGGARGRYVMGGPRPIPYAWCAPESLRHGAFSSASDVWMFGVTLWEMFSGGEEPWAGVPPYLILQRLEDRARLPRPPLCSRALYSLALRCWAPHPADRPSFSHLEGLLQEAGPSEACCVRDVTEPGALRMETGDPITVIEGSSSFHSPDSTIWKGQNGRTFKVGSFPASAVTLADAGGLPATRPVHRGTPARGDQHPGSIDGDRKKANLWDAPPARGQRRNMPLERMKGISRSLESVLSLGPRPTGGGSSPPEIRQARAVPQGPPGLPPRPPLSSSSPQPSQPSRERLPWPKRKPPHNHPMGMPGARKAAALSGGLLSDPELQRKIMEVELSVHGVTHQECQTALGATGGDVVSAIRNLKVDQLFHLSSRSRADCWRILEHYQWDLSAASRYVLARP
# Procedure: as §1
# HeLa cells = assay: Analysis of mitosis, HeLa centrin-GFP H2B-RFP; type: cell-based, human; conditions: centrosome-less HeLa cells
# Procedure: as §2
# SRPK1 = biological target: T4, SRPK1 (Homo sapiens, UniProt Q96SB4); assay: Radiometric kinase assay, off-target SRPK1; type: biochemical; conditions: off-target from DiscoveRx kinome profiling
# T4 construct: Reaction Biology (Malvern, Pa.), contract assay
# Procedure: as §1
# LRRK2 = biological target: T5, LRRK2 (Homo sapiens, UniProt Q5S007); assay: Radiometric kinase assay, off-target LRRK2; type: biochemical; conditions: off-target from DiscoveRx kinome profiling
# T5 construct: Reaction Biology (Malvern, Pa.), contract assay
# Procedure: as §1
# T1 sequence (O60674 whole entry): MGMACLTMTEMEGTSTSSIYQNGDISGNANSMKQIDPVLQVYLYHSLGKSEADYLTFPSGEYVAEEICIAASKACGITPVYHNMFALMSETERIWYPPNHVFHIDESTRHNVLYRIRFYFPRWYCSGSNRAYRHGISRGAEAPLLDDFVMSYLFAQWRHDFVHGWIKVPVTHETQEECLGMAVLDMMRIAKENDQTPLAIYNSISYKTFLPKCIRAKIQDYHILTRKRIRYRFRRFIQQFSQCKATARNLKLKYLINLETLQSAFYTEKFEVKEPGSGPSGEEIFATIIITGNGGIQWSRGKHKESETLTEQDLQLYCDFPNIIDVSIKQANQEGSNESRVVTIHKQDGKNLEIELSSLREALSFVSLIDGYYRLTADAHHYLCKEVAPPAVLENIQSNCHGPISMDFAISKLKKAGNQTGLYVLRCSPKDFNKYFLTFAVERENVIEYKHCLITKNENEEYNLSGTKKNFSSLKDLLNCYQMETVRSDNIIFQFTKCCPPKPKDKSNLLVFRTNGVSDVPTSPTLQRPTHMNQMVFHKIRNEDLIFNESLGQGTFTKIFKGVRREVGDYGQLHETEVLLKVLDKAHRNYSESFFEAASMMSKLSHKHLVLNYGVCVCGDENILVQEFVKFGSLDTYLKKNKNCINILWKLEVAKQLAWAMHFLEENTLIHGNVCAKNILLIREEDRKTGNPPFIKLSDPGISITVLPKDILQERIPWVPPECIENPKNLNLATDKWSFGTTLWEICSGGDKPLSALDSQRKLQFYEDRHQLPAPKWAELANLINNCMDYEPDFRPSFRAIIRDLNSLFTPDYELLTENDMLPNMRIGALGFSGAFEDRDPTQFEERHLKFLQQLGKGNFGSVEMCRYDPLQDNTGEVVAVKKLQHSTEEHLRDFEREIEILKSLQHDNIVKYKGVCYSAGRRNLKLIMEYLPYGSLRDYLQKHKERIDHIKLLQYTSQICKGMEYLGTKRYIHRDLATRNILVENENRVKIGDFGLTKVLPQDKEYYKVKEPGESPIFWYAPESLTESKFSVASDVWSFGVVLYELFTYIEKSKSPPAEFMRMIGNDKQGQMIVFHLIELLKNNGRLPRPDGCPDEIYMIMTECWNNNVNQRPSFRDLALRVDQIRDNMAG
# T5 sequence (Q5S007 whole entry): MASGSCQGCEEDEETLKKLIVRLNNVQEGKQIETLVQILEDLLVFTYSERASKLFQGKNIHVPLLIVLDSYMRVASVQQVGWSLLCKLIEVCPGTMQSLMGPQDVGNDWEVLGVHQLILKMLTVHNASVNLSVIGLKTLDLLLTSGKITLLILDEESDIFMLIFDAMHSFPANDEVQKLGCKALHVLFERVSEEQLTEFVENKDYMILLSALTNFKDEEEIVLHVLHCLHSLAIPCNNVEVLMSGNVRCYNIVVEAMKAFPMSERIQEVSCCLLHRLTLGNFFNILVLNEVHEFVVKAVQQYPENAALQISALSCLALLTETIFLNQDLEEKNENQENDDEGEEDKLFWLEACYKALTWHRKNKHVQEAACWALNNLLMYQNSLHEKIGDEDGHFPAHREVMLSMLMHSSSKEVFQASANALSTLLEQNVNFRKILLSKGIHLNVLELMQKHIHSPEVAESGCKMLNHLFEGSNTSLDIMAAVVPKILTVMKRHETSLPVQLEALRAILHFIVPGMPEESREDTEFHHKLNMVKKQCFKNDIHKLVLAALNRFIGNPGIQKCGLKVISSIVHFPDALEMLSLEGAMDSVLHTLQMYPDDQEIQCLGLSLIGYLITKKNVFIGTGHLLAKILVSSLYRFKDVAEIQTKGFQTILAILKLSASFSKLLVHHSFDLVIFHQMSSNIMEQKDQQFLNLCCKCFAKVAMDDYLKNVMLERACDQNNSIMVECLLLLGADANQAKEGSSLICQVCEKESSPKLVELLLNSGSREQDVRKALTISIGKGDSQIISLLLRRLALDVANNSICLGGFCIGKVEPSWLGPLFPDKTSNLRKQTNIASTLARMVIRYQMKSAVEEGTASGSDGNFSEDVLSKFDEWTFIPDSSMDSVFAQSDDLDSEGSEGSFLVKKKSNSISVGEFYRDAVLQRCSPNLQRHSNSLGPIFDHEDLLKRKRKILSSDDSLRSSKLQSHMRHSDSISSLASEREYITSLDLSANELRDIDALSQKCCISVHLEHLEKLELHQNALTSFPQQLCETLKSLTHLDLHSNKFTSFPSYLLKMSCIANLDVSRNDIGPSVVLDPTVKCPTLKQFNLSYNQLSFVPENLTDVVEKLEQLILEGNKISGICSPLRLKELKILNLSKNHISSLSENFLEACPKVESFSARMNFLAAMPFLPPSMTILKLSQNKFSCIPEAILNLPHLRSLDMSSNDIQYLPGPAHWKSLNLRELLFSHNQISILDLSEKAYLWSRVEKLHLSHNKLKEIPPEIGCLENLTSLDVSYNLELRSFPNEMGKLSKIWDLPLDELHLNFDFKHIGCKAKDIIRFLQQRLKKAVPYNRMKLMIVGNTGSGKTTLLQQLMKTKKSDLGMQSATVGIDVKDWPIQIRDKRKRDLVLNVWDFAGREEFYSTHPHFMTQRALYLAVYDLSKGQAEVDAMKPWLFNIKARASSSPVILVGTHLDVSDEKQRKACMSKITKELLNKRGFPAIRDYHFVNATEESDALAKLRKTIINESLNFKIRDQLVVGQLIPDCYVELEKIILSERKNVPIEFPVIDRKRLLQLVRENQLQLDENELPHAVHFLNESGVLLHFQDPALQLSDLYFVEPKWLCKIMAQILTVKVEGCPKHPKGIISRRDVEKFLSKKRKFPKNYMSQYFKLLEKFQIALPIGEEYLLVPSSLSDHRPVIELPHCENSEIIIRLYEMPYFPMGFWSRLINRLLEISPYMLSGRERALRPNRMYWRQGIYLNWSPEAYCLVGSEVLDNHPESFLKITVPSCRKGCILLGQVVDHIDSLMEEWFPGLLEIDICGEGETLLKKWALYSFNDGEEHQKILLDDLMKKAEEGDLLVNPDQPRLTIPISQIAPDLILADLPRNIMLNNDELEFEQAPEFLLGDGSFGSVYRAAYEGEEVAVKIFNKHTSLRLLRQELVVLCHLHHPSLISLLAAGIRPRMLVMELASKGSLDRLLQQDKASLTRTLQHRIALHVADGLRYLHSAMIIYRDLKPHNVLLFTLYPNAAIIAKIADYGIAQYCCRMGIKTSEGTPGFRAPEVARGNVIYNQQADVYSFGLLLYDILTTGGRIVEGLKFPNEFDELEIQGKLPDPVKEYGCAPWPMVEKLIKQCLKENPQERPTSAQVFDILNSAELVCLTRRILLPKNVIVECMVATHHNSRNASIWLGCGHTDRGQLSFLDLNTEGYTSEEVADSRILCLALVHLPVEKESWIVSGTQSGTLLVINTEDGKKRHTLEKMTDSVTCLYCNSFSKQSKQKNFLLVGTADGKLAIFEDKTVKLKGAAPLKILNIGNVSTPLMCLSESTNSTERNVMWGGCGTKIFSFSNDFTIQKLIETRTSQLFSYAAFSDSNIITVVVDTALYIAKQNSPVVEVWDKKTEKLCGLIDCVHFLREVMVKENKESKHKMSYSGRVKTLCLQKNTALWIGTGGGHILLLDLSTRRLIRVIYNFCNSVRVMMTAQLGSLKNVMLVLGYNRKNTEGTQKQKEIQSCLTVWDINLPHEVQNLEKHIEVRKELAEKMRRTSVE
# T2 sequence (Q96GD4 whole entry): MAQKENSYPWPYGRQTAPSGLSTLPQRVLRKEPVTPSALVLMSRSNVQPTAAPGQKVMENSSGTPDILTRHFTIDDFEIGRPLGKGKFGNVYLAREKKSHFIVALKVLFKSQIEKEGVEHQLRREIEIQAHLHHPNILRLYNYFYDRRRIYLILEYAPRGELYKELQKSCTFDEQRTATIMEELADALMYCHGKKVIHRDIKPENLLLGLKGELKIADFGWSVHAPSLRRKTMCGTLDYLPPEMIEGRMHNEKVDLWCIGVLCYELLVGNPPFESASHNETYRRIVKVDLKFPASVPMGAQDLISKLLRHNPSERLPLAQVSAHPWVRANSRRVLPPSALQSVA
# T4 sequence (Q96SB4 whole entry): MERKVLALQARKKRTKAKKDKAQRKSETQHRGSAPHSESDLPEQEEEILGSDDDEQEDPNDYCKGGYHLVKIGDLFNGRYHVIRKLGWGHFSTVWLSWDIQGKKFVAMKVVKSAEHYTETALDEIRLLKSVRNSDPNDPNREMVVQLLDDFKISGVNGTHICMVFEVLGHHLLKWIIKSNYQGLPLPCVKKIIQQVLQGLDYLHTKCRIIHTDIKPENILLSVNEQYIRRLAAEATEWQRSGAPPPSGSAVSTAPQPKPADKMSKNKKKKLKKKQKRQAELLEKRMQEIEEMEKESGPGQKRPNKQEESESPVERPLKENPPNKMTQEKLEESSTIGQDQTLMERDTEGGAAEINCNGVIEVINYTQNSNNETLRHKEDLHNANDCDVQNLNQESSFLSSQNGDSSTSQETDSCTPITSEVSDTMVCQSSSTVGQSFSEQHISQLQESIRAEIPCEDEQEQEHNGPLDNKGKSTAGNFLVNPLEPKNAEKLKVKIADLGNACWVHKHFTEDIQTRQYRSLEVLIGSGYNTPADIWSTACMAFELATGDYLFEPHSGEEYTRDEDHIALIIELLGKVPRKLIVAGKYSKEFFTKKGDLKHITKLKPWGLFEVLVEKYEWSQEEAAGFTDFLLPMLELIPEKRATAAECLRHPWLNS
smiles,measurement,setting,value
"COc1c(Nc2cc(C)[nH]n2)nc(Sc2ccc(S(=O)(=O)Cc3cccc([N+](=O)[O-])c3F)cc2F)nc1N1CCOCC1 [Centrinone, 2-((2-fluoro-4-((2-fluoro-3-nitrobenzyl)sulfonyl)phenyl)thio)-5-methoxy-N-(5-methyl-1H-pyrazol-3-yl)-6-morpholinopyrimidin-4-amine]",Ki,JAK2,> 150 nM
same,proliferation versus controls,"NIH/3T3 cells [1]; NIH/3T3, first two days after addition",identical to controls
same,cell death per generation explaining reduced proliferation rate,"NIH/3T3 cells [1]; centrosome-less NIH/3T3, theoretical curves versus measurements",15%
same,increase in mitotic duration,NIH/3T3 cells [2],~20 min
same,Ki,FLT4/VEGFR3,6.29 nM
same,Ki,Aurora B,437 nM
same,percentage of daughters not dividing within 48 hours,"RPE1 cells; RPE1, FIG. 18A",1.5%
same,0-centrosome progeny of pioneer 1-centrosome mothers arrested,"RPE1 cells; RPE1, acute treatment",33.0%
same,1-centrosome progeny of pioneer 1-centrosome mothers arrested,"RPE1 cells; RPE1, acute treatment",25.5%
same,progeny of pioneer 0-centrosome mothers arrested,"RPE1 cells; RPE1, acute treatment",70%
same,centrosome depletion at,centrosomes in cells,100 nM
same,Ki,TNK1,1.38 nM
same,cells undergoing persistent mitotic arrest,HeLa cells,24%
same,increase in mitotic duration,HeLa cells,~1 h
same,Ki,SRPK1,> 150 nM
same,Ki,LRRK2,2.08 nM
